Source: PubChem BioAssay (NCI)
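Protocol summary: plate cells (96-well), add compound at 5 concentrations, incubate 48 h, interpolate endpoints linearly. GI50 marks 50% less growth. The concentration for full growth arrest is given as TGI.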

How the values were obtained:
Assay in all cases: NCI anticancer screen, dose series, 48 h
A549 NSCLC = test system: A549 NSCLC
ACHN renal = test system: ACHN renal
HCC-2998 colon = test system: HCC-2998 colon
IGROV1 ovarian = test system: IGROV1 ovarian
K-562 leukemia = test system: K-562 leukemia
MDA-MB-231 breast = test system: MDA-MB-231 breast
OVCAR-4 ovarian = test system: OVCAR-4 ovarian
SF-295 CNS = test system: SF-295 CNS
SR leukemia = test system: SR leukemia
UO-31 renal = test system: UO-31 renal

Row | SMILES | TGI (A549 NSCLC) [µM] | TGI (ACHN renal) [µM] | TGI (HCC-2998 colon) [µM] | TGI (IGROV1 ovarian) [µM] | TGI (K-562 leukemia) [µM] | TGI (MDA-MB-231 breast) [µM] | TGI (OVCAR-4 ovarian) [µM] | TGI (SF-295 CNS) [µM] | TGI (SR leukemia) [µM] | TGI (UO-31 renal) [µM] | GI50 (A549 NSCLC) [µM] | GI50 (ACHN renal) [µM] | GI50 (HCC-2998 colon) [µM] | GI50 (IGROV1 ovarian) [µM] | GI50 (K-562 leukemia) [µM] | GI50 (MDA-MB-231 breast) [µM] | GI50 (OVCAR-4 ovarian) [µM] | GI50 (SF-295 CNS) [µM] | GI50 (SR leukemia) [µM] | GI50 (UO-31 renal) [µM]
1 | CCCC(c1cc(C(C)(C)C)c(O)cc1C)c1cc(C(C)(C)C)c(O)cc1C | 9.78 | 7.4 | 3.3 | 14.6 | 6.43 | 9.57 | 19.4 | 6.11 | 5.33 | 11.2 |  |  |  |  |  |  |  |  |  | 
2 | CC(C)[C@]12O[C@H]1[C@@H]1O[C@]13[C@]1(O[C@H]1C[C@H]1C4=C(CC[C@@]13C)C(=O)OC4)[C@@H]2OC(=O)OC(C)(C)C | > 100 | > 100 | 0.064 |  | > 100 | > 100 | > 100 | > 100 |  | > 100 | 0.0206 | 0.0107 | 0.0166 | 0.0164 | 0.0199 | 0.0543 | 0.0273 | 0.0336 | 0.0159 | 0.0164
3 | COc1ccc2c(c1)OC(N)=C(C#N)C2c1ccc(F)c(F)c1 (centres undefined) | > 100 | > 72.8 | > 44.9 | > 100 | > 100 | 62.1 | > 100 | > 52.4 | > 52.2 | > 100 | 0.706 | 0.564 | 2.5 | 0.715 | 0.257 | 1.33 | 2.33 | 0.393 | 0.325 | 0.648
4 | O=C1NC(=N[C@@H]2C[C@H]2c2ccccc2)S/C1=C\c1ccc2ncccc2c1 | 6.71 | 8.69 | 18.4 | 11.9 | > 25 | 22.4 | 6.71 | > 12.8 | 3.27 | 6.78 | 0.976 | 1.29 | 1.93 | 2.66 | 1.42 | 5.02 | 0.854 | 1.29 | 0.646 | 2.06
5 | Cc1cc(C)c2c(=O)cc(-c3ccc(F)cc3)[nH]c2n1 | > 100 | > 100 | > 100 | > 100 | > 100 | > 100 | 48.3 | > 100 | 67.7 | 92.4 |  |  |  |  |  |  |  | 50.1 |  | 
6 | NS(=O)(=O)c1ccc(N=Nc2c(O)[nH]c3cccc(CCc4ccncc4)c23)cc1 | > 25 | > 25 | > 25 | > 25 | > 25 | > 25 | > 25 | > 25 | > 25 | > 25 | > 25 | > 25 | > 25 | > 25 | > 25 | > 25 | > 25 | > 25 | > 25 | > 25
7 | COc1cc(C)cc(C(=O)OCc2ccccc2)c1C1=C(Cl)C(=O)C(Cl)=CC1=O | > 10 | > 10 | > 10 | > 10 | 5.37 | > 10 | > 9 | > 10 | > 7.85 | > 10 |  |  |  |  |  |  |  |  |  | 
8 | CCOC(=O)Nc1ccc2c3c(cccc13)-c1ccccc1-2 | > 100 | > 100 | > 100 | > 100 | > 100 | > 100 | > 100 | 7.87 | > 100 | > 100 | 6.03 | 9.73 | 9.56 | 1.98 | 4.12 | 2.58 | > 100 | 2.82 | 4.36 | 2.59
